Laboratory results: patent publication US11633416B1, “Oral formulations of CD73 compounds” (ARCUS BIOSCIENCES, INC., priority 2020, dated 2023)
Read-outs that look alike come from different tables or passages of the source.

Columns and labels:
[1] = Oral exposure in cynomolgus monkeys, compound alone or with excipient in capsules; plasma by LC-MS/MS; assay type: in vivo; conditions: for Oral bioavailability using calcium chelating excipients: cynomolgus monkeys, capsules, versus compound alone
Source text: The influence of different excipients on the bioavailability of Compound (Ia), Compound 2 and Compound 3 in cynomolgus monkeys was investigated. The excipients tested were sodium phytate, sodium citrate, sodium EDTA, cyclodextrin, sodium taurocholate, sodium polystyrene sulfate, sodium caprate, sodium phosphate, carbomer 971P and palmitoyl carnitine chloride. Generally, an appropriate quantity (as indicated in Table 1) of Compound (Ia), Compound 2 or Compound 3 and an excipient were mixed to homogeneity and transferred to capsules for dosing. In one example, Compound (Ia) (500 mg assay, 1.063 correction factor applied for to account for purity) and 2.75 g of sodium phytate (Sigma) were combined in a mortar and pestle. The mixture was ground to homogeneity then 530 mg of the white powder was transferred to enteric capsules (Size 0) prior to dosing.
[…] Compound (Ia), Compound 2 or Compound 3, either alone, or with excipient, in an enteric capsule was administered via an oral pet piller. Blood samples were collected from a peripheral vessel at designated time points, and centrifuged to obtain plasma.
(§1) Plasma samples obtained at each time point from the subjects were prepared by protein precipitation. An aliquot of 50 μL sample was added with 150 μL acetonitrile containing an internal standard ([[[(2R,3S,4R,5R)-5-[6-chloro-4-[[(1S)-2,2,2-trideuterio-1-(2-fluorophenyl)ethyl]amino]pyrazolo[3,4-b]pyridin-1-yl]-3,4-dihydroxyoxolan-2-yl]-dideuteriomethoxy]-hydroxyphosphoryl]methylphosphonic acid, 200 ng/mL in Acetonitrile). The mixture was vortexed for 15 min and then centrifuged at 4500 rpm for 15 min at 4° C. (Sorvall Legend XTR centrifuge, Thermo Scientific, Langenselbold, Germany). 80 μL of the resulting supernatant was transferred into a new plate and mixed with 160 μL water followed by LC-MS/MS analysis.
(§2) • API 4000 mass spectrometer (Applied Biosystems, Foster City, Calif.) • Shimadzu Nexera X^2 UHPLC System (Shimadzu Scientific Instruments, Canby, Oreg.) Column: SHISEIDO CAPCELL PAK INERT ADME S3 (2.00 mm×50 mm, Part No. 79001) Mobile Phase A: 8.6 mM Triethylamine, 100 mM HFIP (1,1,1,3,3,3-Hexafluoro-2-propanol) in Water Mobile Phase B: 8.6 mM Triethylamine, and 100 mM HFIP in [Acetonitrile:water (95:5, v/v) Needle wash (weak & strong): Acetone:MeCN:Water (80:20:20, v/v/v) Flow Rate: 0.50 mL/min HPLC Gradient:
• Ionization Mode: Electrospray (ESI) • Detection Mode: Negative MRM (Q1/Q3 transitions: m/z 579.0/157.0 for Compound (Ia) or Compound 3; m/z 584.0/157.0 for Internal Standard); (Q1/Q3 transitions m/z 562.2/157.0 for Compound 2; m/z 584.0/157.0 for Internal Standard)

[2] = Oral bioavailability in male Sprague-Dawley rats, compound alone or with excipient in water pH 8 by oral gavage; plasma by LC-MS/MS; assay type: in vivo; conditions: for Bioavailability (% F): oral gavage
Protocol: The influence of different excipients on the bioavailability of Compound 2 was investigated in Sprague Dawley rats. The excipients tested were Solutol HS 15, soy L-α-phosphatidylcholine, trisodium citrate, sodium caprate, disodium EDTA, and sodium phytate. Generally, 10-30 mg of Compound 2 and the indicated quantity (Table 5) of excipient was combined and dissolved in 5 mL water. The pH was adjusted to a pH of 8 using HCl or NaOH as needed.
Male Sprague-Dawley rats, weighing between 0.27 to 0.32 kg, were fasted overnight prior to dose administration through approximately 4 hours post-dose. Compound 2 was administered orally by orogastric gavage at 5 mL/kg. Blood samples were collected via femoral vein at designated time points, and centrifuged to obtain plasma.
as §1, with “([(2R,3S,4R,5R)-5-[2-chloro-6-(cyclopentylmethylamino)purin-9-yl]-3,4-dihydroxyoxolan-2-yl]methoxymethylphosphonic” for “([[[(2R,3S,4R,5R)-5-[6-chloro-4-[[(1S)-2,2,2-trideuterio-1-(2-fluorophenyl)ethyl]amino]pyrazolo[3,4-b]pyridin-1-yl]-3,4-dihydroxyoxolan-2-yl]-dideuteriomethoxy]-hydroxyphosphoryl]methylphosphonic”
as §2, with “(1,1 1,3,3,3-Hexafluoro-2-propanol)” for “(1,1,1,3,3,3-Hexafluoro-2-propanol)”, “Acetone: MeCN: Water” for “Acetone:MeCN:Water”, “mL/min” for “mL/min HPLC Gradient:”
• Ionization Mode: Electrospray (ESI) • Detection Mode: Negative MRM (Q1/Q3 transitions: m/z 562.2/157.0 for Compound 2; m/z 584.0/157.0 for Internal Standard)

[3] = oral, enteric capsule, dose 50 mg, with 275 mg sodium phytate (Sigma-Aldrich, ≥5 mol sodium/mol), fasted
[4] = male, cynomolgus monkey, plasma, po, 50 mg, Table 3: dose 50 mg, dosed with 195 mg trisodium citrate and 3 mg SDS, enteric capsules
[5] = male, cynomolgus monkey, plasma, po, 50 mg, Table 3: dose 50 mg, dosed with 195 mg trisodium citrate and 3 mg SDS, enteric capsules, read-out: Cmax
[6] = male, cynomolgus monkey, plasma, po, 50 mg, Table 4: dose 50 mg, dosed with 275 mg sodium phytate, enteric capsules
[7] = male, cynomolgus monkey, plasma, po, 50 mg, Table 4: dose 50 mg, dosed with 275 mg sodium phytate, enteric capsules, read-out: Cmax
[8] = male, cynomolgus monkey, plasma, po, 50 mg, enteric capsule, with 195 mg sodium citrate, 3 mg SDS, fasted
[9] = male, cynomolgus monkey, plasma, po, 50 mg, enteric capsule, with 275 mg sodium phytate (Sigma-Aldrich, ≥5 mol sodium/mol), fasted
[10] = male, cynomolgus monkey, plasma, po, 50 mg, oral, enteric capsule, dose 50 mg, with 195 mg sodium citrate, 3 mg SDS, fasted, read-out: Cmax
[11] = male, cynomolgus monkey, plasma, po, 50 mg, oral, enteric capsule, dose 50 mg, with 275 mg sodium phytate (Sigma-Aldrich, ≥5 mol sodium/mol), fasted, read-out: Cmax

With `C[C@H](Nc1cc(Cl)nc2c1cnn2[C@@H]1O[C@H](COP(=O)(O)CP(=O)(O)O)[C@@H](O)[C@H]1O)c1ccccc1F` [Ia (Neutral), (((((2R,3S,4R,5R)-5-(6-chloro-4-(((S)-1-(2-fluorophenyl)ethyl)amino)-1H-pyrazolo[3,4-b]pyridin-1-yl)-3,4-dihydroxytetrahydrofuran-2-yl)methoxy)(hydroxy)phosphoryl)methyl)phosphonic acid] as the compound, how does the “Exposure Enhancement” value ([1]; oral, enteric capsule, dose 50 mg, with 275 mg sodium phytate (Sigma-Aldrich), relative to 50 mg Ia ( 3Na) without absorption enhancer) read?
Its value is 7.6-fold^b.

What about the “AUC0-∞” value [1, 3] of the same compound?
Its value is 102,000 h*ng/mL.

And the Cmax [1, 3]?
The Cmax was 2,790 ng/mL.

Which results are given for `C[C@H](Nc1cc(Cl)nc2c1cnn2[C@@H]1O[C@H](COP(=O)(O)CP(=O)(O)O)[C@@H](O)[C@H]1O)c1ccc(F)cc1` [Compound 3]?
Oral bioavailability using calcium chelating excipients [1]: Improved; AUC(0-inf) [1, 4]: 38700 ng·h/mL; Cmax [1, 5]: 1320 ng/mL; AUC(0-inf) [1, 6]: 149000 ng·h/mL; Cmax [1, 7]: 3550 ng/mL

Which AUC(0-inf) ([1]; male, cynomolgus monkey, plasma, po, 50 mg, enteric capsule, with 195 mg sodium citrate, 6 mg sodium dodecyl sulfate (SDS), fasted) does the source give for `C[C@H](Nc1nc(Cl)nc2c1cnn2[C@@H]1O[C@H](COP(=O)(O)CP(=O)(O)O)[C@@H](O)[C@H]1O)c1ccccc1` [2 (Neutral)] here?
The AUC(0-inf) was 129000 ng·h/mL.

And the AUC(0-inf) ([1]; male, cynomolgus monkey, plasma, po, 50 mg, gelatin capsule, with 195 mg sodium citrate, 6 mg SDS, fasted)?
Its AUC(0-inf) is 151000 ng·h/mL.

What about the Cmax ([1]; male, cynomolgus monkey, plasma, po, 50 mg, oral, enteric capsule, dose 50 mg, with 195 mg sodium citrate, 6 mg sodium dodecyl sulfate (SDS), fasted, read-out: Cmax) of the same compound?
Its Cmax is 3140 ng/mL.

And the Cmax ([1]; male, cynomolgus monkey, plasma, po, 50 mg, oral, gelatin capsule, dose 50 mg, with 195 mg sodium citrate, 6 mg SDS, fasted, read-out: Cmax)?
The Cmax was 3180 ng/mL.

Which “Oral bioavailability using calcium chelating excipients” value [1] does the source give for `C[C@H](Nc1cc(Cl)nc2c1cnn2[C@@H]1O[C@H](COP(=O)(O)CP(=O)(O)O)[C@@H](O)[C@H]1O)c1ccccc1F` [Compound (Ia), (((((2R,3S,4R,5R)-5-(6-chloro-4-(((S)-1-(2-fluorophenyl)ethyl)amino)-1H-pyrazolo[3,4-b]pyridin-1-yl)-3,4-dihydroxytetrahydrofuran-2-yl)methoxy)(hydroxy)phosphoryl)methyl)phosphonic acid] here?
The value was “Improved”.

And the AUC(0-inf) [1, 4]?
The AUC(0-inf) was 22200 ng·h/mL.

What about the Cmax [1, 5] of the same compound?
The Cmax was 922 ng/mL.

What about the AUC(0-inf) [1, 6] of the same compound?
Its AUC(0-inf) is 122000 ng·h/mL.

What about the Cmax [1, 7] of the same compound?
Its Cmax is 3680 ng/mL.

What does the source list for `C[C@H](Nc1nc(Cl)nc2c1cnn2[C@@H]1O[C@H](COP(=O)(O)CP(=O)(O)O)[C@@H](O)[C@H]1O)c1ccccc1` [Compound 2]?
Oral bioavailability using calcium chelating excipients [1]: Improved; AUC(0-inf) [1, 4]: 67100 ng·h/mL; Cmax [1, 5]: 2530 ng/mL; AUC(0-inf) [1, 6]: 105000 ng·h/mL; Cmax [1, 7]: 2320 ng/mL; Oral bioavailability using calcium chelating excipients ([2]; SD rats, 10-30 mg/kg + excipient in water at pH 8 via oral gavage, 5 mL/kg): Improved; Bioavailability (% F) ([2]; 10 mg/kg, excipient: Sodium phytate (Sigma) 165 mg/SDS 2 mg): 2.0 % F; Bioavailability (% F) ([2]; 10 mg/kg, excipient: Sodium phytate (Sigma, ≥5 mol sodium/mol) 165 mg): 2.3 % F; Bioavailability (% F) ([2]; 10 mg/kg, excipient: Trisodium citrate 64.5 mg/sodium caprate 49 mg): 0.23 % F; Bioavailability (% F) ([2]; 30 mg/kg, excipient (mg/kg): Solutol HS 15, 1,500): 0.015 % F; Bioavailability (% F) ([2]; 30 mg/kg, excipient: Disodium EDTA 5 mg): 0.60 % F; Bioavailability (% F) ([2]; 30 mg/kg, excipient: Disodium EDTA 20 mg): 2.8 % F; Bioavailability (% F) ([2]; 30 mg/kg, excipient: None): 0.03 % F; Bioavailability (% F) ([2]; 30 mg/kg, excipient: Soy L-α-phosphatidylcholine 150 mg): 0.07 % F; Bioavailability (% F) ([2]; 30 mg/kg, excipient: Trisodium citrate 20 mg): 0.10 % F; Bioavailability (% F) ([2]; 30 mg/kg, excipient: Trisodium citrate 64.5 mg): 0.60 % F

Which AUC(0-inf) [1, 8] does the source give for `C[C@H](Nc1cc(Cl)nc2c1cnn2[C@@H]1O[C@H](COP(=O)(O)CP(=O)(O)O)[C@@H](O)[C@H]1O)c1ccc(F)cc1` [3 ( 3Na)] here?
The AUC(0-inf) was 38700 ng·h/mL.

What about the AUC(0-inf) [1, 9] of the same compound?
The AUC(0-inf) was 149000 ng·h/mL.

What about the Cmax [1, 10] of the same compound?
Its Cmax is 1320 ng/mL.

What about the Cmax [1, 11] of the same compound?
The Cmax was 3550 ng/mL.

What does the source list for `C[C@H](Nc1nc(Cl)nc2c1cnn2[C@@H]1O[C@H](COP(=O)(O)CP(=O)(O)O)[C@@H](O)[C@H]1O)c1ccccc1` [2 (Na)]?
AUC(0-inf) ([1]; male, cynomolgus monkey, plasma, po, 10 mg, enteric capsule, neat, fasted): 918 ng·h/mL; AUC(0-inf) ([1]; male, cynomolgus monkey, plasma, po, 10 mg, enteric capsule, with 195 mg sodium citrate, 3 mg SDS, fasted): 4880 ng·h/mL; AUC(0-inf) ([1]; male, cynomolgus monkey, plasma, po, 10 mg, enteric capsule, with 195 mg sodium citrate, fasted): 8840 ng·h/mL; AUC(0-inf) ([1]; male, cynomolgus monkey, plasma, po, 10 mg, enteric capsule, with 275 mg sodium phytate (Sigma-Aldrich), fasted): 6010 ng·h/mL; Cmax ([1]; male, cynomolgus monkey, plasma, po, 10 mg, oral, enteric capsule, dose 10 mg, neat, fasted, read-out: Cmax): 161 ng/mL; Cmax ([1]; male, cynomolgus monkey, plasma, po, 10 mg, oral, enteric capsule, dose 10 mg, with 195 mg sodium citrate, 3 mg SDS, fasted, read-out: Cmax): 997 ng/mL; Cmax ([1]; male, cynomolgus monkey, plasma, po, 10 mg, oral, enteric capsule, dose 10 mg, with 195 mg sodium citrate, fasted, read-out: Cmax): 791 ng/mL; Cmax ([1]; male, cynomolgus monkey, plasma, po, 10 mg, oral, enteric capsule, dose 10 mg, with 275 mg sodium phytate (Sigma-Aldrich), fasted, read-out: Cmax): 824 ng/mL; AUC(0-inf) [1, 8]: 67100 ng·h/mL; AUC(0-inf) [1, 9]: 105000 ng·h/mL; Cmax [1, 10]: 2530 ng/mL; Cmax [1, 11]: 2320 ng/mL; Exposure Enhancement ([1]; oral, enteric capsule, dose 10 mg, with 195 mg sodium citrate, 3 mg SDS, relative to 10 mg dose of 2(Na) without absorption enhancer): 5.3-fold^e; Exposure Enhancement ([1]; oral, enteric capsule, dose 10 mg, with 195 mg sodium citrate, relative to 10 mg dose of 2(Na) without absorption enhancer): 9.6-fold^e; Exposure Enhancement ([1]; oral, enteric capsule, dose 10 mg, with 275 mg sodium phytate (Sigma-Aldrich), relative to 10 mg dose of 2(Na) without absorption enhancer): 6.6-fold^e
